Assay results published in the NIST ThermoML archive (doi:10.1016/j.fluid.2006.06.017).

Tests used:
[1] = Liquid; for mass density: 298.15 K, 101.33 kPa; for vapor or sublimation pressure: Ebulliometric method (Recirculating still)
[2] = refractive index (Na D-line) (dimensionless); settings: 298.15 K; 101.33 kPa; Liquid; Standard Abbe refractometry

CCCCO [butan-1-ol]
Settings | mass density [kg/m3] | refractive index
[1] | 805.65 | –
[2] | – | 1.3976

[1]
Settings | vapor or sublimation pressure [kPa]
351.18 K | 20
390.75 K | 101.3

CCCO [propan-1-ol]
Settings | mass density [kg/m3] | refractive index
[1] | 799.62 | –
[2] | – | 1.3836

[1]
Settings | vapor or sublimation pressure [kPa]
332.63 K | 20
369.75 K | 101.3

CCCOCCC [dipropyl ether]
Settings | mass density [kg/m3] | refractive index
[1] | 741.81 | –
[2] | – | 1.3784

[1]
Settings | vapor or sublimation pressure [kPa]
302.6 K | 10.47
306.36 K | 12.43
310.41 K | 14.95
313.39 K | 16.91
315.97 K | 18.97
317.33 K | 20
318.45 K | 20.97
320.69 K | 22.93
323.79 K | 25.95
326.58 K | 28.97
329.15 K | 31.95
331.52 K | 34.95
333.76 K | 37.95
335.79 K | 40.9
337.8 K | 43.95
339.62 K | 46.85
341.27 K | 49.7
343.07 K | 52.91
345.22 K | 56.95
347.19 K | 60.85
349.07 K | 64.87
351.36 K | 69.9
353.45 K | 74.84
355.48 K | 79.91
357.37 K | 84.8
359.21 K | 89.75
360.93 K | 94.65
363.16 K | 101.3
